From patent publication US9835629B2, “Methods and reagents for biomolecule labeling, enrichment and gentle elution” (Pierce Biotechnology, Inc., priority 2012, dated 2017) come the findings set out here.

Assay [1] deals with anti-TMT™ antibody. As to the kind of experiment: surface plasmon resonance competitive elution of anti-TMT antibody bound to a TMT-labeled surface. Type of assay: binding, mice. Particulars: washing in μM to mM concentrations, room temperature. The method, then: (§1) As the protein is labeled at nearly all amine sites, more sites on the protein are likely bound to the resin and more competitor reagent is necessary to elute the bound protein (FIG. 3B).
For total cysteine alkylation, cell lysates and purified proteins were denatured, reduced, and labeled with excess iodoTMTzero or iodoTMTsixplex reagents prior to enzymatic digestion. For cysteine S-nitrosylation quantitation, samples were treated with nitrosylation donor agents (e.g. GSH-NO) and alkylated with methyl methanethiosulfonate (MMTS) to block unmodified sulfhydryl groups. […] An anti-TMT antibody resin was used for labeled peptide enrichment. Peptide samples were analyzed using a Thermo Scientific LTQ™ ORBITRAP XL mass spectrometer. Data were analyzed using Thermo Scientific PROTEOME DISCOVERER 1.3 software. Elution buffer was evaluated by surface plasmon resonance (SPR) using a TMT-derivatized CM5 chip on a GE Healthcare BIACORE 3000 instrument.

Assay [2] has as its system anti-TMT™ antibody. Nature of the assay: enrichment and elution of S-nitrosylated, iodoTMT-labeled peptides with anti-TMT antibody. More on the design: species or system mice. Particulars: in vitro S-nitrosylated cell lysate. The procedure: Peptides were washed with Tris buffered saline (TBS), […] detergent (Waters), or CHAPS detergent and eluted with 0.4% trifluoracetic acid (pH about 2), or washed with TBS and water prior to elution with DMP at the indicated concentrations and pH. Eluted peptides were analyzed by LC-MS/MS on a Thermo Scientific ORBITRAP XL and data was interpreted with Thermo Scientific PROTEOME DISCOVERER 1.3 to identify the eluted peptides and the number of iodoTMT labeled peptides specifically eluted (percentage shown above each bar). […] These peptide samples were enriched with the anti-TMT antibody, and samples of the load, the flowthrough, and the non-specific and specific elutions were assessed for peptide recovery and specificity.
The cysteine-reactive […] tags and affinity enrichment reagents are used for the enrichment, detection, and quantification of low abundance protein modifications. […] These peptide samples were then enriched with the anti-TMT™ antibody, and a sample of the load, the flowthrough, and the non-specific and specific elutions were assessed for peptide recovery and specificity (FIG. 4B). […]
For total cysteine alkylation, cell lysates and purified proteins were denatured, reduced, and labeled with excess iodoTMTzero or iodoTMTsixplex reagents prior to enzymatic digestion. […] Peptide samples were analyzed using a Thermo Scientific LTQ™ ORBITRAP XL mass spectrometer. […]

Assay [3] relates to anti-TMT immobilized antibody resin. As to the kind of experiment: elution of iodoTMT-labeled peptides of a cell lysate from anti-TMT resin, LC-MS/MS. More on the design: species or system mice. The method, then: Peptides were washed with Tris buffered saline (TBS), […] detergent (Waters), or CHAPS detergent and eluted with 0.4% trifluoracetic acid (pH about 2), or washed with TBS and water prior to elution with DMP at the indicated concentrations and pH. Eluted peptides were analyzed by LC-MS/MS on a Thermo Scientific ORBITRAP XL and data was interpreted with Thermo Scientific PROTEOME DISCOVERER 1.3 to identify the eluted peptides and the number of iodoTMT labeled peptides specifically eluted (percentage shown above each bar). In FIG. 4B, a cell lysate was S-nitrosylated in vitro with nitroglutathione, the free thiols were irreversibly alkylated with iodoacetamide, the nitroso groups were reduced and selectively released with ascorbic acid, the newly exposed cysteines were irreversibly alkylated with iodoTMT, and the samples were then reduced to remove disulfide linkages, alkylated with iodoacetamide, and digested with trypsin. These peptide samples were enriched with the anti-TMT antibody, and samples of the load, the flowthrough, and the non-specific and specific elutions were assessed for peptide recovery and specificity.
Cell lysates were labeled with an irreversible cysteine-reactive iodoacetyl TMT® reagent, digested, and then captured with the anti-TMT™ resin. The bound peptides were eluted non-specifically with different pH and detergent conditions or specifically with different concentrations and pH of DMP elution reagent (FIG. 4A). […] As DMP is not a biological molecule, there is no interference from endogenous levels. In contrast, biotinylated molecules are more difficult to recover and may result in the enrichment of interfering endogenously biotinylated molecules.

A further assay concerns Anti-TMT™ antibody resin. As to the kind of experiment: elution of TMT-labeled protein from anti-TMT antibody resin. Particulars: micromolar to millimolar, intact protein labeled with amine-reactive TMT. The arrangement: species or system mice.
Excerpt: as §1

The mark [4] stands for this setting: iodoacetyl TMT-labeled cell lysate peptides.

Regarding `C[C@@H]1CCC[C@H](C)N1` [DMP, cis-2,6-dimethyl piperidine], in the assay with anti-TMT™ antibody [1], the “elution of bound anti-TMT antibody from TMT-labeled surface” value is reported as “elutes bound antibody within minutes”. Also, the “more peptides yielded than a low pH elution” value in the assay with anti-TMT™ antibody [2] (specific elution) was “approximately 50%”. The “specificity of the enrichment of iodoTMT-labeled peptides” value in the assay with anti-TMT™ antibody [2] (specific elution (6% with low pH elution)) is reported as 21%. In assay [3] (10 mM, high pH), the “elution efficiency at high pH” value is “even more efficient” and the “specificity of elution at high pH” value is “lower specificity of elution”. For the same molecule, in assay [3] (setting [4]), the “number of peptides eluted versus non-specific elution conditions” value is on record as “over 100 times” and the specificity of elution result is reported as “greater than 90%”. Moreover, in the assay with Anti-TMT™ antibody resin, the “elution of bound TMT-labeled protein from anti-TMT antibody resin” value is given as “efficiently eluted”.
